Read-outs that look alike come from different tables or passages of the source.
Columns and labels:
[1] = biological target: T1, Thymidylate synthetase (TS) (Mus musculus, UniProt P07607); assay: Thymidylate synthetase (TS) inhibition, 3H release assay; format: biochemical; details: for TS IRP (inverse relative potency, I50 test compound/I50 CB3717): relative to CB3717
T1 construct: A 50,000 g supernatant was prepared from a TS over-producing (45-fold) L1210 cell line; endogenous in cells; host or cells: L1210 (TS over-producing subline, 45-fold), 50,000 g supernatant
T1 sequence (P07607 whole entry): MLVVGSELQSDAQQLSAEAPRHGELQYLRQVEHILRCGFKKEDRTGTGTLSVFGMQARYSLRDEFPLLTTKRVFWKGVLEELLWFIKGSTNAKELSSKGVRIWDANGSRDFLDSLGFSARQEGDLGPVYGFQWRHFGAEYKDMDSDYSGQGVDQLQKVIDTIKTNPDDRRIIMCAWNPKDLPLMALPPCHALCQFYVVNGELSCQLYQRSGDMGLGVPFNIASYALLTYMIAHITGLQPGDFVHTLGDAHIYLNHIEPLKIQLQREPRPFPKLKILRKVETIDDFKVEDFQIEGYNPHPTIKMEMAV
Method: Each compound was dissolved in 0.15M NaHCO3. Thymidylate synthetase was assayed by a ^3 H release method. A 50,000 g supernatant was prepared from a TS over-producing (45-fold) L1210 cell line that was developed in this Institute. The preparation buffer was 0.05M potassium phosphate/0.01M 2-mercaptoethanol, pH 7.4. […] The reaction mixture contained a total of 25 umoles of phosphate. Incubation time was for 1 hour at 37° C.
The results are tabulated below (Table 5). The I50 was defined as the inhibitor concentration necessary to reduce the activity of TS by 50%.

[2] = system: L1210 cells; assay: L1210 cell culture growth inhibition; format: cell-based; details: Mus musculus, 48 hours, read-out: L1210 ID50
Method: (§1) Cells in the log phase of growth were diluted to about 5×10^4 /ml and duplicate 5ml aliquots were added to 50 ml tissue culture flasks containing the appropriate additions (diluted in RPMI and sterilised by Millipore filtration). Cell counts after 48 hours of incubation were obtained by Coulter counting.

[3] = system: de novo thymidylate synthesis in L1210 cells; assay: Incorporation of 3H dUrd into acid-precipitable material in L1210 cells; format: cell-based
Method: L1210 cells were used at a concentration of 10^5 /ml. Incubation at 37° C. was in complete RPMI tissue culture medium plus or minus drugs for the lengths of time indicated on the graphs. After this time ^3 H dUrd was added at a concentration of 2 uCi/ml (about 0.2 uM). Three 1 ml aliquots were removed after 20 minutes, placed on ice and mixed with 1 ml of ice-cold phosphate buffered saline (PBS). Precipitation onto glass-fibre discs was performed by trichloroacetic acid washing followed by PBS. […] This is an indirect measurement of de novo thymidylate synthesis in whole cells. […] These concentrations are 10 times the ID50 values.

[4] = system: L1210/C15 cells; assay: L1210/C15 cell culture growth inhibition (overproduces TS 45-fold); format: cell-based
Method: Cell counts after 48 hours of incubation were obtained by Coulter counting.

[5] = system: L1210 cells; assay: Reversal of L1210 toxicity by co-incubation with thymidine; format: cell-based; details: compound 50 uM + 10 uM thymidine
Method: as §1

[6] = system: L1210 tumour; assay: Treatment of L1210 tumour-bearing mice; format: in vivo, mouse
Method: (§2) The L1210 tumour is carried routinely in DBA2 mice at the Institute of Cancer Research (L1210/CBRI). For experiments 5×10^4 cells were implanted i.p. into male C57Bl×DBA2 F1 hybrid mice 3 days prior to treatment. […] The control group consisted of 9 mice and treated groups 6 or 7 mice.

[7] = Comparative pharmacokinetics in the mouse (plasma, liver, kidney levels); format: in vivo; details: for concentration at 3 h / concentration at 6 h: mouse, plasma, ip, read-out: Plasma quinazoline conc.
Method: 3 Hours and 6 hours after administration groups of three mice at each dose level were sacrificed by exsanguination via cardiac puncture. Plasma was prepared and the livers and kidneys excised and weighed.

[8] = system: alanine transaminase; assay: Comparative hepatotoxicity in the mouse (plasma alanine transaminase); format: in vivo
Method: […]. Plasma was prepared and the livers and kidneys excised and weighed.
Samples of plasma were also analysed for the enzyme alanine transaminase, an indicator of hepatotoxicity. […]

[9] = Urinary and faecal elimination in the mouse; format: in vivo; details: ip, 100 mg/kg i.p., 0-48 h
[10] = Toxicity and weight loss in treated L1210 tumour-bearing mice; format: in vivo, mouse; details: 200 mg/kg, data not included
Method: as §2

[11] = rat, in vivo; for concentration: iv, 100 mg/kg
Method: (§3) During and after the infusion blood and bile samples were collected. Four hours after the experiment the rats were sacrificed and the urine collected from the bladder and the liver and kidneys removed.
(§4) Samples of plasma were also analysed for alanine transaminase.

[12] = system: L1210 cells; details: grown in vitro; cited from earlier work
[13] = system: L1210 cells; details: cited from earlier work
[14] = system: L1210 tumour; details: grown in vivo; cited from earlier work
[15] = mouse; cited from earlier work
[16] = man, cited from earlier work
[17] = cited from earlier work
[18] = in vivo; details: rat, iv, 100 mg/kg, Plasma levels
Method: as §3, §4

[19] = 100 mg/kg i.p., 3 h post-treatment
[20] = 100 mg/kg i.p., 6 h post-treatment
[21] = 300 mg/kg i.p., 3 h post-treatment
[22] = 300 mg/kg i.p., 6 h post-treatment

Question: What does the source list for `CN(Cc1ccc2nc[nH]c(=O)c2c1)c1ccc(C(=O)N[C@@H](CCC(=O)O)C(=O)O)cc1` [CB3824, N-(4-(N-((3,4-dihydro-4-oxo-6-quinazolinyl)methyl)methylamino)benzoyl)-L-glutamic acid]?
Answer: TS IRP (inverse relative potency, I50 test compound/I50 CB3717) [1]: 53; IC50 [2]: 1100 nM

Question: For `C=CCN(Cc1ccc2nc[nH]c(=O)c2c1)c1ccc(C(=O)N[C@@H](CCC(=O)O)C(=O)O)cc1` [CB3826, N-(4-(N-((3,4-dihydro-4-oxo-6-quinazolinyl)methyl)prop-2-enylamino)benzoyl)-L-glutamic acid], which “TS IRP (inverse relative potency, I50 test compound/I50 CB3717)” value [1] is on record?
Answer: 56

Question: And the IC50 [2]?
Answer: 1700 nM

Question: With `Nc1nc2ccc(CNc3ccc(C(=O)N[C@@H](CCC(=O)O)C(=O)O)cc3)cc2c(=O)[nH]1` [CB3705, 5,8-dideazafolic acid] as the compound, how does the IC50 [2] read?
Answer: 5000 nM

Question: What about the “3H dUrd incorporation” value ([3]; 10 times the ID50 concentration) of the same compound?
Answer: did not produce rapid suppression

Question: What about the “3H dUrd incorporation” value ([3]; over 2 hours at the ID50 concentration (5 uM)) of the same compound?
Answer: did not significantly effect

Question: With `O=C(O)CC[C@H](NC(=O)c1ccc(NCc2ccc3nc[nH]c(=O)c3c2)cc1)C(=O)O` [CB3816, N-(4-(((3,4-dihydro-4-oxo-6-quinazolinyl)methyl)amino)benzoyl)-L-glutamic acid] as the compound, how does the “TS IRP (inverse relative potency, I50 test compound/I50 CB3717)” value [1] read?
Answer: 1136

Question: And the IC50 [2]?
Answer: 700 nM

Question: Which results are given for `C#CCN(Cc1ccc2nc[nH]c(=O)c2c1)c1ccc(C(=O)N[C@@H](CCC(=O)O)C(=O)O)s1` [CB3866, N-(5-(N-((3,4-dihydro-4-oxo-6-quinazolinyl)methyl)prop-2-ynylamino)thien-2-oyl)-L-glutamic acid]?
Answer: IC50 ([1]; TS from TS over-producing L1210 line, 200 uM (±)-L-5,10-CH2FH4, 1 hour at 37° C, read-out: TS I50): 1700 nM; TS IRP (inverse relative potency, I50 test compound/I50 CB3717) [1]: 85

Question: Which “L1210/C15 ID50” value ([4]; 48 hours, at 100 uM) does the source give for `C#CCN(Cc1ccc2nc(N)nc(O)c2c1)c1ccc(C(=O)N[C@@H](CCC(=O)O)C(=O)O)cc1` [CB3717, N-(4-(N-((2-amino-4-hydroxy-6-quinazolyl)methyl)prop-2-ynylamino)benzoyl)-L-glutamic acid, reference compound] here?
Answer: no inhibition

Question: And the “Cell count at 48 hours as % control” value [5]?
Answer: 103 % control

Question: And the activity at 50 µM ([3]; Mus musculus, L1210, 10 min, 50 uM, by about 10 minutes)?
Answer: < 20%

Question: And the “"cures" (survived >100 days)” value ([6]; 50 mg/kg i.p. daily ×5)?
Answer: about 70%

Question: What about the “"cures"” value ([6]; 100 mg/kg (the optimal dose), many previous experiments) of the same compound?
Answer: 80-100%

Question: And the Kidney quinazoline level [7, 19]?
Answer: 13 ± 2 % dose administered

Question: And the Liver quinazoline level [7, 19]?
Answer: 32 ± 4 % dose administered

Question: What about the Kidney quinazoline level [7, 20] of the same compound?
Answer: 20 ± 8 % dose administered

Question: And the Liver quinazoline level [7, 20]?
Answer: 11 ± 2 % dose administered

Question: And the Kidney quinazoline level [7, 21]?
Answer: 6 ± 1 % dose administered

Question: What about the Liver quinazoline level [7, 21] of the same compound?
Answer: 22 ± 8 % dose administered

Question: And the Kidney quinazoline level [7, 22]?
Answer: 16 ± 1 % dose administered

Question: What about the Liver quinazoline level [7, 22] of the same compound?
Answer: 14 ± 6 % dose administered

Question: And the “detection in plasma, liver and kidneys” value ([7]; mice, 3 and 6 hours after i.p. dose, for CB3804 except plasma 3 h at 500 mg/kg)?
Answer: readily detected

Question: What about the concentration at 3 h [7, 19] of the same compound?
Answer: 134 ± 34 µM

Question: And the concentration at 6 h [7, 20]?
Answer: 59 ± 38 µM

Question: What about the concentration at 3 h [7, 21] of the same compound?
Answer: 214 ± 55 µM

Question: And the concentration at 6 h [7, 22]?
Answer: 362 ± 32 µM

Question: What about the “Plasma alanine transaminase level” value [8, 19] of the same compound?
Answer: 225 ± 146 U/L

Question: What about the “Plasma alanine transaminase level” value [8, 20] of the same compound?
Answer: 273 ± 106 U/L

Question: And the “Plasma alanine transaminase level” value [8, 21]?
Answer: 86 ± 61 U/L

Question: What about the “Plasma alanine transaminase level” value [8, 22] of the same compound?
Answer: 973 ± 178 U/L

Question: What about the “Levels of alanine transaminase (in words)” value ([8]; mice i.p., normal range 5-25U/l) of the same compound?
Answer: markedly elevated

Question: And the dose excreted at 48 h ([9]; faeces, read-out: Faecal excretion of the parent compound)?
Answer: 26 ± 7%

Question: And the dose excreted at 48 h ([9]; urine, read-out: Urinary excretion of the parent compound)?
Answer: 15 ± 3%

Question: And the weight loss [10]?
Answer: about 10%

Question: And the mortality ([10]; mouse, in vivo, ip, read-out: death (of the animals))?
Answer: ~50%

Question: What about the “clearance from the plasma (in words)” value [11] of the same compound?
Answer: cleared less rapidly

Question: What about the concentration ([11]; 0.5 h) of the same compound?
Answer: 447 µM

Question: And the concentration ([11]; 1 h)?
Answer: 878 µM

Question: And the “activity against L1210 cells in vitro” value [12]?
Answer: active against L1210 cells

Question: And the “effect of thymidine on cytotoxic effect” value [13]?
Answer: prevented in both cases by thymidine

Question: And the “activity against L1210 cells in vivo” value [14]?
Answer: active against L1210 cells

Question: What about the “kidney toxicity: plasma urea” value [15] of the same compound?
Answer: rise in plasma urea

Question: What about the “liver toxicity: alanine transaminase” value [15] of the same compound?
Answer: transient rise in alanine transaminase

Question: What about the hepatic toxicity [16] of the same compound?
Answer: apparently non-dose-related (although not life-threatening) hepatic toxicity

Question: And the “liver toxicity: alanine transaminase” value [16]?
Answer: transient rise in alanine transaminase

Question: And the “responses noted during Phase I/II clinical studies” value ([16]; particularly breast and ovary)?
Answer: Several minor and partial responses

Question: What about the “solubility at acid pH” value [17] of the same compound?
Answer: poor solubility

Question: And the concentration at 0.5 h [18]?
Answer: 412 µM

Question: And the concentration at 1 h [18]?
Answer: 908 µM

Question: Which “resistance of L1210/C15 cells” value [4] does the source give for `CN(Cc1cnc2nc(N)nc(N)c2n1)c1ccc(C(=O)N[C@@H](CCC(=O)O)C(=O)O)cc1` [methotrexate] here?
Answer: not resistant

Question: What does the source list for `CCN(Cc1ccc2nc[nH]c(=O)c2c1)c1ccc(C(=O)N[C@@H](CCC(=O)O)C(=O)O)cc1` [CB3822, N-(4-(N-((3,4-dihydro-4-oxo-6-quinazolinyl)methyl)ethylamino)benzoyl)-L-glutamic acid]?
Answer: TS IRP (inverse relative potency, I50 test compound/I50 CB3717) [1]: 26; IC50 [2]: 2600 nM

Question: With `Cc1c(CNc2ccc(C(=O)N[C@@H](CCC(=O)O)C(=O)O)cc2)ccc2nc(N)nc(N)c12` [CB3703, 5CH35,8-dideazaaminopterin] as the compound, how does the “resistance of L1210/C15 cells” value [4] read?
Answer: not resistant

— US5236927A, “Anti-cancer quinazoline derivatives” (National Research Development Corporation, priority 1985, dated 1993)
